From patent US20230055237A1, “COMPOUNDS AND METHODS FOR THE TREATMENT OF CYSTIC FIBROSIS” (Flatley Discovery Lab, LLC, priority 2019, published 2023)

Target: T1, CFTR (Homo sapiens, UniProt P13569, DEL508-508)
T1 construct: Primary CF airway epithelial cells were obtained from the UNC Cystic Fibrosis Tissue Procurement and Cell Culture Core; host or cells: primary CF airway epithelial cells, differentiated at the air-liquid interface
Assay: Equivalent current assay in primary CF airway epithelial cells (NAUC, combination with 1st site corrector FDL169 or VX-809)
Assay type: cell-based
Details: 37° C., 24 h

[1] = test compound 10 μM in combination with 1st site corrector VX-809 (3 μM)
[2] = test compound 1 μM in combination with 1st site corrector FDL169 (3 μM)
[3] = test compound 3 μM in combination with 1st site corrector FDL169 (3 μM)
[4] = test compound 1 μM in combination with 1st site corrector VX-809 (3 μM)
[5] = test compound 3 μM in combination with 1st site corrector VX-809 (3 μM)

T1 sequence (P13569 with tags, fused parts or gaps DEL508-508): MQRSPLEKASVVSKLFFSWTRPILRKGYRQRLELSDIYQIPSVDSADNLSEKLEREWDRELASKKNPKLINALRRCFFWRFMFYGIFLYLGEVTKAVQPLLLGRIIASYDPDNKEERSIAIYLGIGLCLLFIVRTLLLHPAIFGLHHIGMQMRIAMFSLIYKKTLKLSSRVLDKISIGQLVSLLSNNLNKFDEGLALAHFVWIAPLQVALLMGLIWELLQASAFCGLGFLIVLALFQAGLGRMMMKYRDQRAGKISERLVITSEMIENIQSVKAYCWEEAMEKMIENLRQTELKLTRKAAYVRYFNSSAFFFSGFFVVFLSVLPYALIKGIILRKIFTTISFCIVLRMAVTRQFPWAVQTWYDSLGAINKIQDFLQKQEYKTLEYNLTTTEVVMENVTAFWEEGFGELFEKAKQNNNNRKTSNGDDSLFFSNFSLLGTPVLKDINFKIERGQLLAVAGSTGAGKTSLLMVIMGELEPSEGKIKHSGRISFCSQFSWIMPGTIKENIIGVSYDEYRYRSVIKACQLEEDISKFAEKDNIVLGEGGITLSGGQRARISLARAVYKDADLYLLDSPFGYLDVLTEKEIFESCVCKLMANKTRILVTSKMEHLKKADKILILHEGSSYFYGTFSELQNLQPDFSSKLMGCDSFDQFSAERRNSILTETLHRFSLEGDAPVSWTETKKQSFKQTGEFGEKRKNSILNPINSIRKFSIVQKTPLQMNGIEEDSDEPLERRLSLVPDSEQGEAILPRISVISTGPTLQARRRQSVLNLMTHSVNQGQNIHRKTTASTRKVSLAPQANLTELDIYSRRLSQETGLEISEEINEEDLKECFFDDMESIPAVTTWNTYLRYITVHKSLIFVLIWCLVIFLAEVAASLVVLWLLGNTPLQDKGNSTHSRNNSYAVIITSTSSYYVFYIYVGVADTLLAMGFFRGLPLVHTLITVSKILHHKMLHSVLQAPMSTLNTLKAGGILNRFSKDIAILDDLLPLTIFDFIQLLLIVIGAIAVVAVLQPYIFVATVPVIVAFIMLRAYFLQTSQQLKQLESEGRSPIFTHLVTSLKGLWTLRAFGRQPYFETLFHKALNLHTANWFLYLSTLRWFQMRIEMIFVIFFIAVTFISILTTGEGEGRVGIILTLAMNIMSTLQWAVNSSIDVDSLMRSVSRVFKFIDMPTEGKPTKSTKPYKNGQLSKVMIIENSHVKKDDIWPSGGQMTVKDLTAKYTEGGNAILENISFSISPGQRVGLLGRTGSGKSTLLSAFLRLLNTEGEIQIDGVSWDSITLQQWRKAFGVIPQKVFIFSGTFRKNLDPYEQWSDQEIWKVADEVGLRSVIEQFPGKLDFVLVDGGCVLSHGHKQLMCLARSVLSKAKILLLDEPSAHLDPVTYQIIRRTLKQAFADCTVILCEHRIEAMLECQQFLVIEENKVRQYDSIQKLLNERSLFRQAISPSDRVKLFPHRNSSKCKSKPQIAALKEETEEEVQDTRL

Row | Compound | Nauc @ 10 μM [1] | Nauc @ 1 μM [2] | Nauc @ 3 μM [3] | Nauc @ 1 μM [4] | Nauc @ 3 μM [5] | Nauc @ 10 μM (test compound 10 μM in combination with 1st site corrector FDL169 (3 μM))
1 | Cc1oc(=O)oc1COC(=O)[C@H]1[C@@H](C(=O)N(C)c2cc(Cl)cc(Cl)c2)[C@H]2CC(F)(F)CN2C12C(=O)Nc1c(Cl)cc(Cl)cc12 (mixture of isomers) [Example 250.3a, rac-(5-methyl-2-oxo-1,3-dioxo1-4-yl)methyl (1′R,2′S,3R,7a′R)-5,7-dichloro-1-((3,5-dichlorophenyl)(methyl)carbamoyl)-6′,6′-difluoro-2-oxo-1′,2′,5′,6′,7′,7a′-hexahydrospiro[indoline-3,3′-pyrrolizine]-2′-carboxylate] | +++ (NAUC “+++” refers to an observed NAUC>170% of positive control) | – | – | – | – | –
2 | CN(C(=O)[C@H]1[C@H]2CC(F)(F)CN2[C@]2(C(=O)N(CC3CC3)c3c(Cl)cc(Cl)cc32)[C@H]1C(=O)O)c1cc(Cl)cc(Cl)c1 [Example 201] | – | + (NAUC “+” refers to an observed NAUC <140% of positive control) | + (NAUC “+” refers to an observed NAUC <140% of positive control) | – | – | –
3 | O=C(Nc1cc(Cl)cc(Cl)c1)C1C(C(F)(F)c2ccc(Cl)cc2)NC2(C(=O)Nc3c(Cl)cc(Cl)cc32)C1C(=O)O (centres unmarked) [Example 67.9a, 5,7-dichloro-5,7′-((4-chlorophenyl)difluoromethyl)-4′-((3,5-dichlorophenyl)carbamoyl)-2-oxospiro[indoline-3,2′-pyrrolidine]-3′-carboxylic acid] | + (NAUC “+” refers to an observed NAUC <140% of positive control) | – | – | – | – | –
4 | CN(O)C(=O)C1C(C(=O)Nc2cc(Cl)cc(Cl)c2)C2CCCN2C12C(=O)Nc1c(Cl)cc(Cl)cc12 (single isomer, unassigned) [Example 235b, 5,7-dichloro-N1′-(3,5-dichlorophenyl)-N2′-hydroxy-N2′-methyl-2-oxo-1′,2′,5′,6′,7′,7a′-hexahydrospiro[indoline-3,3′-pyrrolizine]-1′,2′-dicarboxamide] | +++ (NAUC “+++” refers to an observed NAUC>170% of positive control) | – | – | +++ (NAUC “+++” refers to an observed NAUC>170% of positive control) | +++ (NAUC “+++” refers to an observed NAUC>170% of positive control) | –
5 | C[C@]1(O)CC2C(C(=O)Nc3cc(Cl)c(OC(F)F)c(Cl)c3)C(C(=O)O)C3(C(=O)Nc4c(Cl)cc(Cl)cc43)N2C1 (some centres unmarked) [Example 4] | +++ (NAUC “+++” refers to an observed NAUC>170% of positive control) | – | – | – | +++ (NAUC “+++” refers to an observed NAUC>170% of positive control) | –
6 | O=C(Nc1cc(Cl)cc(Cl)c1)C1C2C[C@@](O)(C(F)(F)F)CN2C2(C(=O)Nc3c(Cl)cc(Cl)cc32)C1C(=O)O (some centres unmarked) [Example 58] | +++ (NAUC “+++” refers to an observed NAUC>170% of positive control) | – | – | – | + (NAUC “+” refers to an observed NAUC <140% of positive control) | –
7 | O=C(O)[C@H]1[C@@H](C(=O)N(CC2CCCCCC2)c2cc(Cl)cc(Cl)c2)[C@H]2CC(F)(F)CN2[C@]12C(=O)Nc1c(Cl)cc(Cl)cc12 [Example 178] | – | +++ (NAUC “+++” refers to an observed NAUC>170% of positive control) | +++ (NAUC “+++” refers to an observed NAUC>170% of positive control) | – | – | ++ (NAUC “++” refers to an observed NAUC 170-140% of positive control)
8 | CN(C(=O)[C@H]1[C@H]2CC(F)(F)CN2C2(C(=O)Nc3c(Cl)cc(Cl)cc32)[C@H]1C(=O)O)c1cccc(C(F)(F)F)n1 (some centres unmarked) [Example 292] | +++ (NAUC “+++” refers to an observed NAUC>170% of positive control) | – | – | ++ (NAUC “++” refers to an observed NAUC 170-140% of positive control) | +++ (NAUC “+++” refers to an observed NAUC>170% of positive control) | –
